{
  "source": "the supplement of paper PMC10307832",
  "assay_in_all_cases": "relative viability (nuclei count vs DMSO), 5 days (fraction); higher = more cells survive",
  "key": {"Etoposide + Foretinib": {"compound": "COc1cc([C@@H]2c3cc4c(cc3[C@@H](O[C@@H]3O[C@@H]5CO[C@@H](C)O[C@H]5[C@H](O)[C@H]3O)[C@H]3COC(=O)[C@H]23)OCO4)cc(OC)c1O [Etoposide] + COc1cc2c(Oc3ccc(NC(=O)C4(C(=O)Nc5ccc(F)cc5)CC4)cc3F)ccnc2cc1OCCCN1CCOCC1 [Foretinib] (partner 0.25 µM)", "outline": "(§1)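 Five library-drug doses in √10 steps were combined with a fixed anchor-drug dose, or a single drug was given alone, by pin tool to lung cancer cell lines in 1536-well plates the day after seeding. Nuclei were stained and counted after 5 days. Relative viability is the nuclei count in treated wells over that in vehicle wells, taken as the median of duplicate plates.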"}, "Etoposide + OSI-027": {"compound": "COc1cc([C@@H]2c3cc4c(cc3[C@@H](O[C@@H]3O[C@@H]5CO[C@@H](C)O[C@H]5[C@H](O)[C@H]3O)[C@H]3COC(=O)[C@H]23)OCO4)cc(OC)c1O [Etoposide] + COc1cccc2cc(-c3nc([C@H]4CC[C@H](C(=O)O)CC4)n4ncnc(N)c34)[nH]c12 [OSI-027] (partner 0.5 µM)", "outline": "as §1"}, "Etoposide + Bortezomib": {"compound": "COc1cc([C@@H]2c3cc4c(cc3[C@@H](O[C@@H]3O[C@@H]5CO[C@@H](C)O[C@H]5[C@H](O)[C@H]3O)[C@H]3COC(=O)[C@H]23)OCO4)cc(OC)c1O [Etoposide] + CC(C)C[C@H](NC(=O)[C@H](Cc1ccccc1)NC(=O)c1cnccn1)B(O)O [Bortezomib] (partner 0.002 µM)", "outline": "as §1"}, "Bleomycin + Linsitinib": {"compound": "CC1=C(N=C(N=C1N)[C@H](CC(=O)N)NC[C@@H](C(=O)N)N)C(=O)N[C@@H]([C@H](C2=CN=CN2)OC3C(C(C(C(O3)CO)O)O)OC4C(C(C(C(O4)CO)O)OC(=O)N)O)C(=O)N[C@H](C)[C@H]([C@H](C)C(=O)N[C@@H]([C@@H](C)O)C(=O)NCCC5=NC(=CS5)C6=NC(=CS6)C(=O)NCCC[S+](C)C)O [Bleomycin] + C[C@]1(O)C[C@@H](c2nc(-c3ccc4ccc(-c5ccccc5)nc4c3)c3c(N)nccn32)C1 [Linsitinib] (partner 1 µM)", "settings": "main component drawn", "outline": "as §1"}},
  "data": [
    {"cell line": "UMC-11", "values": [
      {"measurement": "relative viability", "setting": "Etoposide + Foretinib; first compound 0.01 µM", "value": 1.1},
      {"measurement": "relative viability", "setting": "Etoposide + Foretinib; first compound 0.03162 µM", "value": 1.17},
      {"measurement": "relative viability", "setting": "Etoposide + Foretinib; first compound 0.1 µM", "value": 0.928},
      {"measurement": "relative viability", "setting": "Etoposide + Foretinib; first compound 0.3162 µM", "value": 0.566},
      {"measurement": "relative viability", "setting": "Etoposide + Foretinib; first compound 1 µM", "value": 0.322},
      {"measurement": "relative viability", "setting": "Etoposide + OSI-027; first compound 0.01 µM", "value": 0.443},
      {"measurement": "relative viability", "setting": "Etoposide + OSI-027; first compound 0.03162 µM", "value": 0.544},
      {"measurement": "relative viability", "setting": "Etoposide + OSI-027; first compound 0.1 µM", "value": 0.299},
      {"measurement": "relative viability", "setting": "Etoposide + OSI-027; first compound 0.3162 µM", "value": 0.431},
      {"measurement": "relative viability", "setting": "Etoposide + OSI-027; first compound 1 µM", "value": 0.3},
      {"measurement": "relative viability", "setting": "Etoposide + Bortezomib; first compound 0.01 µM", "value": 0.685},
      {"measurement": "relative viability", "setting": "Etoposide + Bortezomib; first compound 0.03162 µM", "value": 0.777},
      {"measurement": "relative viability", "setting": "Etoposide + Bortezomib; first compound 0.3162 µM", "value": 0.389},
      {"measurement": "relative viability", "setting": "Etoposide + Bortezomib; first compound 1 µM", "value": 0.187},
      {"measurement": "relative viability", "setting": "Bleomycin + Linsitinib; first compound 0.01 µM", "value": 0.975},
      {"measurement": "relative viability", "setting": "Bleomycin + Linsitinib; first compound 0.03162 µM", "value": 0.91},
      {"measurement": "relative viability", "setting": "Bleomycin + Linsitinib; first compound 0.1 µM", "value": 0.863},
      {"measurement": "relative viability", "setting": "Bleomycin + Linsitinib; first compound 0.3162 µM", "value": 0.647},
      {"measurement": "relative viability", "setting": "Bleomycin + Linsitinib; first compound 1 µM", "value": 0.498}
    ]}
  ]
}
